The values that follow come from patent US10913711B2, “Potent and selective inhibitors of monoamine transporters; method of making; and use thereof” (priority 2013, dated 2021).

Where two headings read alike, the source gives them in different places. Where only a bound is given, the exact number is not on record here.

One data set concerns the target human SERT wild type (Homo sapiens (Human), UniProt P31645). Type of data set: cell-based. The following applies: for Ki: read-out: hSERT WT Ki [S.E. interval]. An excerpt: (§1) Molecular Pharmacology Site-directed mutagenesis: Synthetic cDNA encoding the human DAT (synDAT) were subcloned into pcDNA3 (Invitrogen, Carlsbad, Calif.). cDNA encoding the human SERT (hSERT) was cloned into the pUbilz expression vector. Mutations herein were generated by the QuickChange method (adapted from Stratagene, La Jolla, Calif.) and confirmed by restriction enzyme mapping and DNA sequencing. Positive clones were amplified by transformation into XL1 blue competent cells (Stratagene) and positive colony picked and grown in LB media over night at 37° C. in an orbital incubator (Infors) @ 200 rpm. Plasmids were harvested using the maxi prep kit provided by Qiagen according to the manufacturer's manual.
(§2) Uptake assays were performed essentially as previously described to Cha, J. H.; Zou, M. F.; Adkins, E. M.; Rasmussen, S. G.; Loland, C. J.; Schoenenberger, B.; Gether, U.; Newman, A. H. Rhodamine-Labeled 2beta-Carbomethoxy-3beta-(3,4-Dichlorophenyl)Tropane Analogues as High-Affinity Fluorescent Probes for the Dopamine Transporter. […] Transiently transfected COS-7 cells were plated in 12-well (3*10^5 cells/well) or 24-well dishes (10^5 cells/well) coated with poly-ornithine to achieve an uptake level of no more than 10% of total added radioligand. The uptake assays were carried out 2 days after transfection. Prior to the experiment, the cells were washed once in 500 μl of uptake buffer buffer (25 mM 4-(2-hydroxyethyl)-1-piperazineethanesulfonic acid (HEPES), 130 mM NaCl, 5.4 mM KCl, 1.2 mM CaCl2, 1.2 mM MgSO4, 1 mM L-ascorbic acid, 5 mM D-glucose, and 1 μM of the catechol-O-methyltransferase inhibitor Ro 41-0960 (Sigma), pH 7.4) at room temperature (RT). […] All samples were transferred to 24-well counting plates and 500 μL (or 600 μL) of Opti-phase Hi Safe 3 scintillation fluid (Perkin Elmer) was added followed by counting of the plates in a Wallac Tri-Lux β-scintillation counter (Perkin Elmer). Nonspecific uptake was determined in the presence of 5 μM paroxetine for hSERT and 50 μM nomifensine for hDAT expressing cells. All determinations were performed in triplicate.

Another data set addresses human SERT T497A mutant (Homo sapiens (Human), UniProt P31645, T497A). Type of data set: cell-based. To be noted: for Ki: read-out: hSERT T497A Ki [S.E. interval].
Text: as §1, §2

In a further data set the target is SERT (Rattus norvegicus (Rat), UniProt P31652). The following applies: 2i v. 2g (Table 1); 4c v. 4a (Table 2).
In another data set the target is DAT (Rattus norvegicus (Rat), UniProt P23977). Kind of data set: Dopamine Transporter Binding Assay ([3H]WIN 35428, rat striatal membranes).
The target of the next data set is human DAT A480T mutant (Homo sapiens (Human), UniProt Q01959, A480T). Kind of data set: [3H]DA uptake inhibition in intact COS7 cells, hDAT A480T. To be noted: for Ki: read-out: hDAT A480T Ki [S.E. interval], [3H]DA uptake inhibition potency; for affinity at DAT A480T compared to DAT WT: uptake inhibition.
The target of a further data set is NET (Rattus norvegicus (Rat), UniProt Q9WTR4). Kind of data set: Norepinephrine Transporter Binding Assay ([3H]Nisoxetine, rat frontal cortex membranes). Here is the method: Binding affinities of all compounds were evaluated at the DAT, SERT, and NET in rat brain membranes using previously described methods:
Norepinephrine Transporter Binding Assay. Brains from male Sprague-Dawley rats weighing 200-225 g (Taconic Labs, Germantown, N.Y.) were removed, frontal cortex dissected and rapidly frozen. Membranes were prepared by homogenizing tissues in 20 volumes (w/v) of 50 mM Tris containing 120 mM NaCl and 5 mM KCl, (pH 7.4 at 25° C.), using a Brinkman Polytron and centrifuged at 50,000×g for 10 min at 4° C. The resulting pellet was resuspended in buffer, recentrifuged and resuspended in buffer to a concentration of 80 mg/mL. Ligand binding experiments were conducted in assay tubes containing 0.5 mL buffer for 60 min at 0-4° C. […] Nonspecific binding was determined using 1 mM desipramine. Incubations were terminated by rapid filtration through Whatman GF/B filters, presoaked in 0.05% polyethylenimine, using a Brandel R48 filtering manifold (Brandel Instruments Gaithersburg, Md.). The filters were washed twice with 3 mL cold buffer and transferred to scintillation vials. Beckman Ready Value (3.0 mL) was added and the vials were counted using a Beckman 6000 liquid scintillation counter (Beckman Coulter Instruments, Fullerton, Calif.). […] All compounds were tested as racemic mixtures.

The target of the next data set is human DAT wild type (Homo sapiens (Human), UniProt Q01959). Kind of data set: [3H]DA uptake inhibition in intact COS7 cells, hDAT WT. It is filed as cell-based. To be noted: [3H]DA uptake inhibition potency, read-out: hDAT WT Ki [S.E. interval].
Data set [1] in a line: Phase II glucuronidation stability in mouse liver microsomes (UDPGA). It is filed as in vitro ADME. On the procedure:
Phase I and phase II metabolic stability assay for was conducted in mouse liver microsomes. For phase I metabolism, the reaction was carried out with 100 mM potassium phosphate buffer, pH 7.4, in the presence of NADPH regenerating system (1.3 mM NADPH, 3.3 mM glucose 6-phosphate, 3.3 mM MgCl2, 0.4 U/mL glucose-6-phosphate dehydrogenase, 50 μM sodium citrate). Reactions in duplicate were initiated by addition of the liver microsomes to the incubation mixture (compound final concentration was 10 μM; 0.5 mg/mL microsomes). For phase II glucuronidation reaction compound was added to TRIS-HCl buffer (50 mM, pH 7.5) with microsomes (0.5 mg/mL), along with MgCl2 (8 mM), and alamethicin (25 μg/mL) and pre-incubated at 37° C. The reaction was initiated (in duplicate) with UDPGA at a final concentration of 2 mM. Negative controls in the absence NADPH and UDPGA were carried for both phase I and phase II metabolism respectively, to determine the specific cofactor free degradation. […] Compound disappearance was monitored over time using a liquid chromatography and tandem mass spectrometry (LC/MS/MS) method.
Compounds were separated on an Agilent 1290 UPLC system with a c18 column using a gradient run of 55:45-5:95 water:acetonitrile over 3.2 minutes and detected on an Agilent 6520 QTOF mass spectrometer.
For orientation: Microsomes from liver hold many membrane-bound enzymes, among them those of drug oxidation.

Data set [2] is described as follows: Brain concentrations in mice. The following applies: mouse brain; for IV brain Conc. ng/g ± SD: 10 mg/kg IV; for PO brain Conc. ng/g ± SD: 10 mg/kg PO. Here is the method:
Plasma was harvested from blood by centrifugation. Additionally at two selected time points (i.e. 30 min and 2 h) brains were collected following both oral and IV dosing. Samples were extracted from plasma by a single one-step protein precipitation method (as described in bioanalysis section below). For brain tissue, whole brains were weighed and homogenized in two times the volume of acetonitrile, followed by vortexing and centrifugation. Once extracted, the samples were analyzed via LC/MS/MS (as described in bioanalysis section below). Non-compartmental-analysis module in WinNonlin™ (version 5.3) was used to assess pharmacokinetic parameters including maximal concentration (Cmax), time to Cmax (Tmax), area under the curve (AUClast), area extrapolated to infinity (AUCO-∞), terminal disposition rate constant (ke), and terminal half-life (t½).
Briefly, plasma samples were thawed on ice prior to extraction. Samples (50 μL) were extracted in 300 μL acetonitrile containing 1000 nM losartan as internal standard. For brain, 50 μL of the supernatant from homogenized tissue was extracted with 100 μL acetonitrile containing 1000 nM losartan as internal standard. Extracts were centrifuged at 16000×g at 4° C. for 10 minutes. Supernatants were transferred to a new siliconized tube and dried under N2 at 45° C. for 30 min. Samples were reconstituted with 100 μL of 30% acetonitrile, vortexed and centrifuged. Supernatants (95 μL) were transferred to a 250 μL polypropylene autosampler vials sealed with a Teflon cap and a volume of 10 μL was injected onto the ultra-performance liquid chromatography (UPLC) instrument for quantitative analysis using a temperature-controlled autosampler operating at 10° C.
The instrument was controlled by the Xcalibur software 2.3 (Thermo Scientific). Samples were introduced to the interface through Turbo Ion Spray with the temperature setting at 350° C.
Chromatographic analysis was performed using an Accela™ ultra high-performance system consisting of an analytical pump, and an autosampler coupled with TSQ Vantage mass spectrometer (Thermo Fisher Scientific Inc., Waltham Mass.).

Substrate in data set [3]: ON(O)CCc1ccccc1
Kind of data set: [3H]DA uptake inhibition in intact COS7 cells, hDAT WT. Type of data set: cell-based, human. The following applies: other: [3H]DA uptake, pH 7.4, 37.0 °C.

human DAT A480T mutant, sequence (Q01959 whole entry A480T): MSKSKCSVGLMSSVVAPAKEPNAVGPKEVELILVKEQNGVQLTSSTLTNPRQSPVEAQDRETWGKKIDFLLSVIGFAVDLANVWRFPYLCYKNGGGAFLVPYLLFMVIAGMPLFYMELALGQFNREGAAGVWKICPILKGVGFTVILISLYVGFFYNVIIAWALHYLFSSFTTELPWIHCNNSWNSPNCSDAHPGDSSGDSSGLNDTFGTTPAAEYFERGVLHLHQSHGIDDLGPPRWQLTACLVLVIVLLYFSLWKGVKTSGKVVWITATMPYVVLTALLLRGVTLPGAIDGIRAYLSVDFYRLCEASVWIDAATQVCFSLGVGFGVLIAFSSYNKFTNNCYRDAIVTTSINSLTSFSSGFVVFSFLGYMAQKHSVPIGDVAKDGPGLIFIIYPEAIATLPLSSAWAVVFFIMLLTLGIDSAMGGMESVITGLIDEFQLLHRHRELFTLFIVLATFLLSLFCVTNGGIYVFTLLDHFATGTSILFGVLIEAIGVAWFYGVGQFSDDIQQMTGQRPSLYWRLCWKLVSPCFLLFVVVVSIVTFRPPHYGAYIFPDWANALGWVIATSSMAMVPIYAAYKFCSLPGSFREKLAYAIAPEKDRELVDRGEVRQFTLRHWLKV
NET, sequence (Q9WTR4 entry or part of it): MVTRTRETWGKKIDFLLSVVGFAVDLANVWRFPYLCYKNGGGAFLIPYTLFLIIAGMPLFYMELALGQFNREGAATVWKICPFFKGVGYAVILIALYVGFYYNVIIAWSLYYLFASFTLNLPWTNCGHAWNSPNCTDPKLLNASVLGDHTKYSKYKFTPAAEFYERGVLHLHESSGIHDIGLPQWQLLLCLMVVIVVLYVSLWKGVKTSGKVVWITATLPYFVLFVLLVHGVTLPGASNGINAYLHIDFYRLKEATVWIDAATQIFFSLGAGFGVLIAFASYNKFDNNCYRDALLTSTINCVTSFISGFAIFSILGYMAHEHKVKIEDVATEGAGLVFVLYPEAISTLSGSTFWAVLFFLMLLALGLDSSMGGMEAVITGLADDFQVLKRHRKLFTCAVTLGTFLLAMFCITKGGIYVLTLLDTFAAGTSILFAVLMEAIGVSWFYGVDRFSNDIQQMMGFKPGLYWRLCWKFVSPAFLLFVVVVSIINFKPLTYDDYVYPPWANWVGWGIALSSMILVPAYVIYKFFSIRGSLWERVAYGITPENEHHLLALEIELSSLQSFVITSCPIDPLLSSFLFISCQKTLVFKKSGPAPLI
DAT, sequence (P23977 whole entry): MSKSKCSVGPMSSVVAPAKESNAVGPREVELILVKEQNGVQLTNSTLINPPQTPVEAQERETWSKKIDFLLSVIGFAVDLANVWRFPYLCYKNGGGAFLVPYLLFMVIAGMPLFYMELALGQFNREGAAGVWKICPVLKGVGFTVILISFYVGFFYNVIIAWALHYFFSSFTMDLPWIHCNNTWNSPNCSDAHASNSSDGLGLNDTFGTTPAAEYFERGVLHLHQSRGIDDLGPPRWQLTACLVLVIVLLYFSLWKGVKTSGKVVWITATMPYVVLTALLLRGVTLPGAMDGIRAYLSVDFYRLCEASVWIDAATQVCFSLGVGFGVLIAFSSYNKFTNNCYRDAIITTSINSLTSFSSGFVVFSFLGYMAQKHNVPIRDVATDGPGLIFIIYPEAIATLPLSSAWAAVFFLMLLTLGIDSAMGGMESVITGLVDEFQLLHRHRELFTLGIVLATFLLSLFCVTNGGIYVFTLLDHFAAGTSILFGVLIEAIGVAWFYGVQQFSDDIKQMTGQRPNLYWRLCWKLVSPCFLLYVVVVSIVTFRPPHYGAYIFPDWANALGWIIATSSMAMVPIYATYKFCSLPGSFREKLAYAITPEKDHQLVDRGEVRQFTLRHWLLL
SERT, sequence (P31652 whole entry): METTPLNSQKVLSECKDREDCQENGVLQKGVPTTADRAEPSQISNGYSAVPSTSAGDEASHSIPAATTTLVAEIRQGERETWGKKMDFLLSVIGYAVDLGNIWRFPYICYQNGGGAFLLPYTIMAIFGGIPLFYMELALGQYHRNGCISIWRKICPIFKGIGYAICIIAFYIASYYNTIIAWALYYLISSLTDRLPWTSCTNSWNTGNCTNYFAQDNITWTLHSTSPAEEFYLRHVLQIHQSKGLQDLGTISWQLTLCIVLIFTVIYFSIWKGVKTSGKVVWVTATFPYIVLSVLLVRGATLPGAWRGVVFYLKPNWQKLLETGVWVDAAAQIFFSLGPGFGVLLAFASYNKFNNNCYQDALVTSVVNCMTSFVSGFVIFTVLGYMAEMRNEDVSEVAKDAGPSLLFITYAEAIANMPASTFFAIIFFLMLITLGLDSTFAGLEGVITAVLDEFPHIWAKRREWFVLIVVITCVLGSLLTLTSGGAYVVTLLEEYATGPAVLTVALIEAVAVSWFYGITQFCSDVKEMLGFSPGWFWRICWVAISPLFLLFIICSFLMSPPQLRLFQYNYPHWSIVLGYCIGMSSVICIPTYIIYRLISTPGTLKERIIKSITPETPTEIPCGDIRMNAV

Regarding `NCCc1c[nH]c2ccc(O)cc12` [Compound 5-HT, 5-hydroxytryptamine, reference compound], the values for the Km at human SERT wild type (read-out: hSERT WT KM) and on human SERT T497A mutant (read-out: hSERT T497A KM) were 0.52 µM and 1.09 µM, respectively.

With `NCCSC(c1ccc(Br)cc1)c1ccc(Br)cc1` [Compound 4c, 2-((bis(4-bromophenyl)methyl)thio)ethan-1-amine], the “increase in SERT affinity, halogen-substituted v. unsubstituted analog” value at SERT is on record as 9 fold. For the same molecule, the “improvement in DAT affinity, halogen-substituted v. unsubstituted analog” value on DAT stood at 3 fold.

As for `NCCSC(c1ccccc1)c1ccccc1` [Compound 4a, 2-(benzhydrylthio)ethan-1-amine], the inhibitory constant (Ki) (in general, the equilibrium dissociation constant of an inhibitor or competing ligand from its target) at human DAT A480T mutant was found to be 0.72 µM; on human SERT wild type, 0.69 µM; at human SERT T497A mutant, 0.63 µM; at NET, 0.982 ± 0.0433 µM; at human DAT wild type it was 0.39 µM. The “affinity at DAT A480T compared to DAT WT” value at human DAT A480T mutant is “remain unchanged”. In addition, the “affinity at SERT T497A compared to SERT WT” value at human SERT T497A mutant (uptake inhibition, COS7 cells) is “remain unchanged”.

At NET, `[O-][S+](CCNCCCc1ccccc1)C(c1ccc(Br)cc1)c1ccc(Br)cc1` (stereo not drawn) [Compound 5e, N-(2-((bis(4-bromophenyl)methyl)sulfinyl)ethyl)-3-phenylpropan-1-amine] came in with a Ki of 7.58 µM. Moreover, the “selectivity among the monoamine transporters (in words)” value on DAT (DAT, SERT, NET binding, rat brain membranes) is listed as “SERT-selective”.

`Cc1cc(=O)oc2cc(O)ccc12` [4 Methyl Umbelliferone, 4-methylumbelliferone]: the “Phase II, parent compound remaining” value in data set [1] (0 min) is 100%; in data set [1] (60 min) it was 3.10%.

On to `Fc1ccc(C(SCCNCCCc2ccccc2)c2ccc(F)cc2)cc1` [Compound 4g, N-(2-((bis(4-fluorophenyl)methyl)thio)ethyl)-3-phenylpropan-1-amine], for which, in [2] (0.5 h), the “IV brain Conc. ng/g ± SD” value is 4776 (1324) ng/g and the “PO brain Conc. ng/g ± SD” value is listed as 369 (303) ng/g. In data set [2] (2 h), the “IV brain Conc. ng/g ± SD” value is 14111 (8093) ng/g and the “PO brain Conc. ng/g ± SD” value is reported as 223 (90) ng/g. The same molecule returned an inhibitory constant (Ki) on NET of 3.85 µM.

With `CNC(=O)CSC(c1ccc(Br)cc1)c1ccc(Br)cc1` [Compound 2i, 2-((Bis(4-bromophenyl)methyl)thio)-N-methylacetamide], the “increase in SERT affinity, halogen-substituted v. unsubstituted analog” value at SERT is above 50 fold. Moreover, the Ki on NET came out at 11.2 µM. For the same molecule, on DAT, the “improvement in DAT affinity, halogen-substituted v. unsubstituted analog” value is recorded as 6 fold.

Turning to `CNC(=O)CSC(c1ccc(Cl)cc1)c1ccc(Cl)cc1` [Compound 2h, 2-((Bis(4-chlorophenyl)methyl)thio)-N-methylacetamide], the Ki at human DAT A480T mutant is 2.3 µM; on human SERT wild type it was 8.3 µM; at human SERT T497A mutant, 27 µM; on human DAT wild type, 3.7 µM. In addition, on human DAT A480T mutant, the “affinity at DAT A480T compared to DAT WT” value is on record as “essentially the same”. In addition, the “affinity at SERT T497A compared to SERT WT” value on human SERT T497A mutant (uptake inhibition, COS7 cells) is “significantly decreased”.

In the case of `NCCSC(c1ccc(Cl)cc1)c1ccc(Cl)cc1` [Compound 4b, 2-((bis(4-chlorophenyl)methyl)thio)ethan-1-amine], the Ki came to 1.37 µM on human DAT A480T mutant, 0.27 µM at human SERT wild type, 0.17 µM on human SERT T497A mutant and 1.21 µM on human DAT wild type. The “affinity at DAT A480T compared to DAT WT” value on human DAT A480T mutant is given as “remain unchanged”. Besides, the “affinity at SERT T497A compared to SERT WT” value on human SERT T497A mutant is listed as “remain unchanged”.

B1: human DAT wild type (Homo sapiens) (protein)
chain: MSKSKCSVGLMSSVVAPAKEPNAVGPKEVELILVKEQNGVQLTSSTLTNPRQSPVEAQDRETWGKKIDFLLSVIGFAVDLANVWRFPYLCYKNGGGAFLVPYLLFMVIAGMPLFYMELALGQFNREGAAGVWKICPILKGVGFTVILISLYVGFFYNVIIAWALHYLFSSFTTELPWIHCNNSWNSPNCSDAHPGDSSGDSSGLNDTFGTTPAAEYFERGVLHLHQSHGIDDLGPPRWQLTACLVLVIVLLYFSLWKGVKTSGKVVWITATMPYVVLTALLLRGVTLPGAIDGIRAYLSVDFYRLCEASVWIDAATQVCFSLGVGFGVLIAFSSYNKFTNNCYRDAIVTTSINSLTSFSSGFVVFSFLGYMAQKHSVPIGDVAKDGPGLIFIIYPEAIATLPLSSAWAVVFFIMLLTLGIDSAMGGMESVITGLIDEFQLLHRHRELFTLFIVLATFLLSLFCVTNGGIYVFTLLDHFAAGTSILFGVLIEAIGVAWFYGVGQFSDDIQQMTGQRPSLYWRLCWKLVSPCFLLFVVVVSIVTFRPPHYGAYIFPDWANALGWVIATSSMAMVPIYAAYKFCSLPGSFREKLAYAIAPEKDRELVDRGEVRQFTLRHWLKV
Turning to B1, the Km (in general, the concentration of substrate that gives half-maximal velocity) in [3] is 1,160 nM.
